Measured values taken from ChEMBL document CHEMBL3352214, “Studies on indolizines. Evaluation of their biological properties as microtubule-interacting agents and as melanoma targeting compounds” (Eur J Med Chem, 2015).

Legend:
[1] = species on record: Ovis aries; assay: Inhibition of sheep brain tubulin polymerization at 100 uM by fluorescence assay
[2] = Growth inhibition of human MOLT4 cells at 10^-5 M after 48 hrs by SRB assay; assay type: functional; settings: MOLT-4, 48 h, read-out: GI
[3] = system: HL-60(TB); assay: Growth inhibition of human HL-60(TB) cells at 10^-5 M after 48 hrs by SRB assay; assay type: functional; settings: HL-60, 48 h, read-out: GI
[4] = Growth inhibition of human HOP92 cells at 10^-5 M after 48 hrs by SRB assay; assay type: functional; settings: HOP-92, 48 h, read-out: GI
[5] = Growth inhibition of human EKVX cells at 10^-5 M after 48 hrs by SRB assay; assay type: functional; settings: read-out: GI
[6] = system: NCI-H522; assay: Growth inhibition of human NCI-H522 cells at 10^-5 M after 48 hrs by SRB assay; assay type: functional; settings: NCI-H522, 48 h, read-out: GI
[7] = Growth inhibition of human HCT116 cells at 10^-5 M after 48 hrs by SRB assay; assay type: functional; settings: HCT-116, 48 h, read-out: GI
[8] = Growth inhibition of human HCT15 cells at 10^-5 M after 48 hrs by SRB assay; assay type: functional; settings: HCT-15, 48 h, read-out: GI
[9] = system: MDA-MB-435; assay: Growth inhibition of human MDA-MB-435 cells at 10^-5 M after 48 hrs by SRB assay; assay type: functional; settings: MDA-MB-435, 48 h, read-out: GI
[10] = system: Malme-3M; assay: Growth inhibition of human MALME-3M cells at 10^-5 M after 48 hrs by SRB assay; assay type: functional; settings: read-out: GI
[11] = system: A498; assay: Growth inhibition of human A498 cells at 10^-5 M after 48 hrs by SRB assay; assay type: functional; settings: A498, 48 h, read-out: GI
[12] = system: CAKI-1; assay: Growth inhibition of human Caki1 cells at 10^-5 M after 48 hrs by SRB assay; assay type: functional; settings: CAKI-1, 48 h, read-out: GI
[13] = Growth inhibition of human PC3 cells at 10^-5 M after 48 hrs by SRB assay; assay type: functional; settings: PC-3, 48 h, read-out: GI
[14] = Growth inhibition of human SF295 cells at 10^-5 M after 48 hrs by SRB assay; assay type: functional; settings: SF-295, 48 h, read-out: GI
[15] = system: SNB-75; assay: Growth inhibition of human SNB75 cells at 10^-5 M after 48 hrs by SRB assay; assay type: functional; settings: SNB-75, 48 h, read-out: GI
[16] = system: MCF7; assay: Growth inhibition of human MCF7 cells at 10^-5 M after 48 hrs by SRB assay; assay type: functional; settings: MCF7, 48 h, read-out: GI
[17] = system: T47D; assay: Growth inhibition of human T47D cells at 10^-5 M after 48 hrs by SRB assay; assay type: functional; settings: Homo sapiens, T47D, 48 h; read-out: GI

Row | Compound | inhibition [1] [%] | inhibition of growth at 10 µM [2] [%] | inhibition of growth at 10 µM [3] [%] | inhibition of growth at 10 µM [4] [%] | inhibition of growth at 10 µM [5] [%] | inhibition of growth at 10 µM [6] [%] | inhibition of growth at 10 µM [7] [%] | inhibition of growth at 10 µM [8] [%] | inhibition of growth at 10 µM [9] [%] | inhibition of growth at 10 µM [10] [%] | inhibition of growth at 10 µM [11] [%] | inhibition of growth at 10 µM [12] [%] | inhibition of growth at 10 µM [13] [%] | inhibition of growth at 10 µM [14] [%] | inhibition of growth at 10 µM [15] [%] | inhibition of growth at 10 µM [16] [%] | inhibition of growth at 10 µM [17] [%]
1 | COC(=O)c1c(C(=O)OC)c2cc(N(C)C)ccn2c1C(=O)c1ccc(OC)c(OC)c1 | 9 | 0 | 12 | 18 | 0 | 3 | 0 | 6 | 0 | 0 | 27 | 10 | 11 | 1 | 1 | 0 | 0
2 | COc1cc(C(=O)c2cc(C#N)c3cc(C#N)ccn23)cc(OC)c1OC | 46 | 2 | 20 | 0 |  | 12 | 2 | 21 | 81 | 26 | 10 | 3 | 8 | 4 | 7 | 15 | 6
3 | CCOC(=O)c1cc(C(=O)c2cc(OC)c(OC)c(OC)c2)n2ccc3ccccc3c12 | 41 |  |  |  |  |  |  |  |  |  |  |  |  |  |  |  | 
4 | CCOC(=O)c1cc(C(=O)c2cc(OC)c(OC)c(OC)c2)n2ccc(C#N)cc12 | 13 |  |  |  |  |  |  |  |  |  |  |  |  |  |  |  | 
5 | COC(=O)c1c(C(=O)OC)c2cc(OC)ccn2c1C(=O)c1ccc(OC)cc1 | 34 | 0 | 6 | 0 | 13 |  | 0 | 0 | 2 | 0 | 7 | 18 | 19 | 10 | 0 | 0 | 2
6 | CCOC(=O)c1cc(C(=O)c2cc(OC)c(OC)c(OC)c2)n2ccc(N(C)C)cc12 | 36 | 7 | 8 |  | 9 | 0 | 0 | 0 | 5 | 0 | 11 | 10 | 12 | 0 | 0 | 7 | 5
7 | CCOC(=O)c1c(C(=O)OCC)c2cc(N(C)C)ccn2c1C(=O)c1cc(OC)c(OC)c(OC)c1 | 26 |  |  |  |  |  |  |  |  |  |  |  |  |  |  |  | 
8 | COC(=O)c1c(C(=O)OC)c2cc(OC)ccn2c1C(=O)c1cc(OC)c(OC)c(OC)c1 | 16 | 0 | 1 |  | 7 | 4 | 2 | 13 | 4 | 0 | 0 | 2 |  | 11 | 0 | 0 | 6
9 | COc1cc(C(=O)c2cc(C#N)c3c(C#N)cccn23)cc(OC)c1OC | 39 | 0 | 7 | 8 |  | 0 | 11 | 23 | 54 | 28 | 0 | 6 | 12 |  | 69 | 29 | 10
